Measured values reported in patent publication US20250092360A1, “METHODS AND COMPOSITIONS FOR GENERATING SOMATOSTATIN+ INTERNEURONS FROM HUMAN FOREBRAIN NEURAL PROGENITOR CELLS” (Trailhead Biosystems Inc., priority 2023, published 2025).
Values joined by “and” are separate entries in the source; they are usually repeats but may differ in a detail not shown here. Equal entries are not always repeated. “Also recorded” adds a separate entry of the source.

Columns and labels:
[1] = tested on: forebrain-committed neural progenitor cells; assay: HD-DoE stage 5, 12-factor experiment (96 combinatorial media): Somatostatin expression; format: cell-based, human; details: for impact on expression of Somatostatin: FIG. 26 dynamic profile, in words; for factor contribution, expression of Somatostatin: positive, 12-factor experiment of FIG. 25
Experimental: In another HD-DoE experiment, the results of which are shown in FIG. 25, cells were differentiated in 96 different combinatorial media made of 12 factors. These cells were treated with stage 1 to stage 4 medium for a total of 12 days prior to the experiment. […] In this model, we focused on maximum expression of Somatostatin gene expressed in somatostatin (+) interneurons. When the model was optimized for maximum expression of Somatostatin, BDNF, 2-phosph-L-Ascorbic Acid, O-LPA, N2 and Prostratin had the highest factor contributions, 1.75, 10.6, 2.7, 9.2 and 6.4 respectively. […]

[2] = tested on: forebrain-committed neural progenitor cells; assay: Factor criticality analysis, stage 5 recipe; format: cell-based, human; details: for contribution to the expression of SST: stage 5, experiment of FIG. 28, in words; for effect on PVALB expression / effect on Somatostatin expression: stage 5, experiment of FIG. 30, in words
Experimental: To assess the impact of elimination of each validated factor, dynamic profile analysis was again used to compare the expression levels of genes of interest in the absence of each finalized factor while the others were present in the media.
In the stage 5 recipe, each of seven finalized factors was removed while the other six factors remained present in the media and the expression levels of SST and PVALB were assessed compared to the presence of all seven factors. […] Thus, BDNF, (−)-Indolactam-V, and 2-phosph-L-Ascorbic Acid were included in the stage 5 recipe. […] Thus, they were excluded from the recipe. […] Therefore, these effectors were included in the stage 5 recipe for SST maturation.

[3] = tested on: forebrain-committed neural progenitor cells; assay: HD-DoE stage 5, 8-factor experiment (JQ1, Indolactam-V ...): Somatostatin expression; format: cell-based, human; details: for impact on expression of Somatostatin: FIG. 21/22, in words; for factor contribution, expression of Somatostatin: positive, 8-factor experiment of FIG. 21
Experimental: To further guide the differentiation of forebrain-committed neural progenitor cells to somatostatin interneuron cells at stage 5, HD-DoE experiments were performed for 3 days after termination of stage 4 treatment. At this time, we focused on maximum expression of SST that was expressed in Somatostatin (+) interneurons and minimum expression of Parvalbumin that is another type of interneurons. This 8-factor experiment included JQ1, (−)-Indolactam-V, Oleic acid, BDNF, IGF-1, 2-phospho-L-Ascorbic acid, Albumax, MK2206. When the model was maximized for expression of Somatostatin, six effectors were identified that could increase its expression levels, including (−)-Indolactam-V, Oleic acid, BDNF, 2-phospho-L-ascorbic acid, Albumax, and MK2206, as shown in FIG. 21. Using dynamic profile analysis, the results of which are shown in FIG. 22, the model was modified to achieve the maximum expression level of Somatostatin and therefore (−)-Indolactam-V, BDNF, and 2-phospho-L-ascorbic acid were included while JQ-1, Oleic acid, Albumax and MK2206 were excluded. Considering the model at different optimization settings for maximum differentiation of cells toward ventral forebrain, the recipe for stage 5 of differentiation included (−)-Indolactam-V, BDNF, IGF-1, and 2-phospho-L-ascorbic acid from this HD-Doe experiment.

[4] = tested on: forebrain-committed neural stem cells; assay: HD-DoE stage 2, 12-factor experiment: NKX2-1 expression; format: cell-based, human; details: for impact on expression of NKX2-1: model / dynamic profile, in words
Experimental: To further guide the differentiation of forebrain-committed neural stem cells to ventral forebrain neural stem cells at stage 2, a HD-DoE experiment was performed for 3 days after termination of stage 1 treatment. […] This 12-factor experiment included LDN193189, BMP7, PD0325901, MK2206, A8301, XAV939, CHIR99021, Purmorphamine, SANT-1, AGN193109, TTNPB and GSI-XX. […]

[5] = tested on: human pluripotent stem cells; assay: HD-DoE stage 1, first 12-factor experiment: gene expression (qPCR) after 3-day treatment; format: cell-based
Excerpt: This example utilizes a method of High-Dimensional Design of Experiments (HD-DoE), as previously described in Bukys et al. (2020) […] 23:101346. The method employs computerized design geometries to simultaneously test multiple process inputs and offers mathematical modeling of a deep effector/response space. The method allows for finding combinatorial signaling inputs that control a complex process, such as during cell differentiation. It allows testing of multiple plausible critical process parameters, as such parameters impact output responses, such as gene expression. Because gene expression provides hallmark features of the phenotype of, for example, a human cell, the method can be applied to identify, and understand, which signaling pathways control cell fate. In the current example, the HD-DOE method was applied with the intent to find conditions for induction of […] neural progenitor-expressed genes, directly from the pluripotent stem cell state. To develop the recipe for each stage, the impact of agonists and antagonists of multiple signaling pathways (herein called effectors) on the expression of two sets of 53 pre-selected genes, after a 3-day treatment, has been tested and modeled. These effectors are small molecules or proteins that are commonly used during stepwise differentiation of stem cells to specific fates. Choice of the effectors were based on current literature on neural induction in forebrain region of developing brain and differentiation of stem cells to neural progenitors. To test the effectors, experiments with at least 8 factors were designed that can assess the response of cells to 48 or more different combinations of effectors in a range of concentrations. To analyze the models, we focused on expression of genes involved in development and patterning of the anterior neuroectoderm and forebrain including OTX2 (Hoch et al. (2015) Cell Reports 12:482-494), SIX3 (Lagutin et al. (2003) Genes & Development 17:368-379) and FEZF2 (Zhang et al. (2014) Development 141:4794-[…]). At later stages we focused on dorsoventral patterning of telencephalon and gene expressed in ventral forebrain including NKX2-1 and absence of PAX6 which is a dorsal forebrain marker (Stoykova et al. (2000) J. Neurosci. 20:8042-8050). The impact of each effector on gene expression level is defined by a parameter called factor contribution that is calculated for each effector during the modeling. To identify the recipe for stage 1 of differentiation, 96 different combinations of effectors generated using Design-of-Experiments compression through D-optimality were robotically prepared. The effector combinations were prepared in a basal media and were subsequently added to the cells, which were then allowed to differentiate. Three days later RNA extraction was performed, and gene expression was obtained using quantitative PCR analysis. The data were normalized and modeled using partial least squares regression analysis to the effector design, resulting in the generation of gene-specific models, which after model tuning for maximal Q2 predictive power, provided explanation of the effectors ability to control the expression of individual genes, combinatorically, and individually. Solutions within the tested space could then be explored to address desirability. Optimizing for maximal expression of SIX3 at 3300 and FEZF2 1355 expression values led to robust solutions. This model was derived from testing 12 effectors including AGN193109, LDN193189, CHIR99021, XAV939, IGF2, Purmorphamine, 4-oxo-RA, TTNPB, SR11237, FGF8, PD0325901 and […]. […] The model was also optimized for maximum expression of FEZF2 separately at 3576 expression value to find any additional factors that can boost expression of forebrain genes. […] To find the set of factors that have the potential to optimize all 3 genes in this experiment, a new assessment was done through dynamic profile analysis with focus on maximal expression of OTX2, FEZF2 and SIX3.

[6] = tested on: forebrain-committed neural progenitor cells; assay: HD-DoE stage 5, 8-factor experiment (GDNF, BDNF, NT-3 ...): Somatostatin expression; format: cell-based, human
Experimental: To investigate the effects of other factors on differentiation of forebrain-committed neural progenitor cells to Somatostatin interneuron cells, an additional HD-DoE experiment was performed for 3 days on cells that were treated with stage 1 to stage 4 medium for a total of 12 days prior to the new experiment. This experiment, the results of which are shown in FIG. 23, included eight effectors, GDNF, BDNF, NT-3, ß-NGF, Linoleic acid, 5-Cholesten-3β, LIF and TGF-β3. In this model, we focused on maximum expression of Somatostatin gene expressed in Somatostatin (+) interneurons (Urban-Ciecko and Barth (2016) Nature Reviews Neurosci. 17:401-409). When the model was optimized for maximum expression of Somatostatin, BDNF, NT-3, beta-NGF and Linoleic acid had the highest factor contributions, 25.7, 2, 19.9, 23.5, respectively.
Therefore, the latter were excluded in the recipe.

Molecule: O=C1O[C@H]([C@@H](O)CO)C(O)=C1OP(=O)(O)O [2-phospho-L-ascorbic acid]
- impact on expression of Somatostatin ([1]; listed as 2-phosph-L-Ascorbic Acid): significant positive effect; also recorded: positive impact
- factor contribution, expression of Somatostatin [1]: 10.6
- contribution to the expression of SST [2]: positive contributions
- effect on PVALB expression [2]: not to PVALB expression
- effect on Somatostatin expression [2]: contribute
- impact on expression of Somatostatin [3]: increase
- impact on expression of Somatostatin ([3]; listed as 2-phospho-L-Ascorbic acid): positive impact
- factor contribution, expression of Somatostatin [3]: 4

Molecule: Cc1cc(SCc2sc(-c3ccc(C(F)(F)F)c(F)c3)nc2C)ccc1OCC(=O)O [GW0742]
- impact on expression of Somatostatin [1]: significant negative impact

Molecule: CCCCCCCC/C=C\CCCCCCCC(=O)OC[C@@H](O)COP(=O)(O)O [O-LPA]
- factor contribution, expression of Somatostatin [1]: 2.7

Molecule: CCCCCCCC/C=C\CCCCCCCC(=O)O [Oleic acid]
- impact on expression of Somatostatin [3]: increase; also recorded: positive impact
- factor contribution, expression of Somatostatin [3]: 7.4

Molecule: CC(=O)O[C@@]12C[C@@H](C)[C@@]3(O)[C@@H](C=C(CO)C[C@]4(O)C(=O)C(C)=C[C@@H]34)[C@@H]1C2(C)C [Prostratin]
- impact on expression of Somatostatin [1]: significant positive effect; also recorded: positive impact
- factor contribution, expression of Somatostatin [1]: 6.4
- effect on PVALB expression [2]: not to PVALB expression
- effect on Somatostatin expression [2]: contribute

Molecule: Cc1nn(-c2ccccc2)c(C)c1/C=N/N1CCN(Cc2ccccc2)CC1 [SANT-1]
- impact on expression of NKX2-1 [4]: negative impact
- factor contribution, expression of NKX2-1 ([4]; negative role, model optimized for maximum NKX2-1): 26.3

Molecule: CC(=O)C(=O)[O-].[Na+] [Sodium Pyruvate]
- impact on expression of Somatostatin [1]: significant negative impact

Molecule: C/C(=C\c1ccc(C(=O)O)cc1)c1ccc2c(c1)C(C)(C)CCC2(C)C [TTNPB]
- impact on expression of NKX2-1 [4]: negative impact
- factor contribution, important input for high expression of SIX3 ([5]; FIG. 2 legend): 23.7
- impact on expression of OTX2 ([5]; dynamic profile / model, in words): negative impact
- impact on expression of SIX3 ([5]; dynamic profile analysis, in words): negative impact
- factor contribution, expression of SIX3 ([5]; negative effect, model optimized for maximal SIX3): 21
- factor contribution, expression of OTX2 ([5]; negative impact, model optimized for maximum OTX2): 29 and 28.8
- factor contribution, expression of FEZF2 ([5]; positive impact, model optimized for maximum FEZF2 at 3576): 24

Molecule: COC(=O)CCC(=O)C(=O)OC [dm-αKG]
- impact on expression of Somatostatin [1]: significant negative impact

Molecule: (−)-Indolactam-V
- contribution to the expression of SST [2]: positive contributions
- impact on expression of Somatostatin [3]: increase; also recorded: positive impact
- factor contribution, expression of Somatostatin [3]: 5.2

B1: BDNF: brain-derived neurotrophic factor; BDNF pathway agonist (protein, UniProt P23560 129-247, looked up)
Neurotrophic factor BDNF: HSDPARRGELSVCDSISEWVTAADKKTAVDMSGGTVTVLEKVPVSKGQLKQYFYETKCNPMGYTKEGCRGIDKRHWNSQCRTTQSYVRALTMDSKKRIGWRFIRIDTSCVCTLTIKRGR
modifications: Neurotrophic factor BDNF
notes: brain-derived neurotrophic factor; BDNF pathway agonist
- impact on expression of Somatostatin [1]: significant positive effect; also recorded: positive impact
- factor contribution, expression of Somatostatin [1]: 1.75 and 1.7
- contribution to the expression of SST [2]: positive contributions
- effect on expression of Somatostatin ([2]; stage 5, experiment of FIG. 29, in words): contribute to the maximal expression
- effect on PVALB expression [2]: not to PVALB expression
- effect on Somatostatin expression [2]: contribute
- impact on expression of Somatostatin [3]: increase; also recorded: positive impact
- factor contribution, expression of Somatostatin [3]: 8.1
- impact on expression of Somatostatin ([6]; FIG. 24 dynamic profile, in words): significant effect; also recorded: positive effect; also recorded: positive impact
- factor contribution, expression of Somatostatin ([6]; positive, 8-factor experiment of FIG. 23): 25.7
